Here are results for 22 compounds from article PMC6968643, “Synthesis and biological evaluation of novel (E)-N'-benzylidene hydrazides as novel c-Met inhibitors through fragment based virtual screening” (Journal of Enzyme Inhibition and Medicinal Chemistry, 2020).

In one series the target is recombinant c-Met kinase (Homo sapiens, UniProt P08581). The series can be described thus: Cell-free detection of c-Met kinase activity (ADP-Glo assay). (ADP-Glo first removes unused ATP, then detects ADP through luciferase.)
recombinant c-Met kinase, sequence (P08581 25-1390): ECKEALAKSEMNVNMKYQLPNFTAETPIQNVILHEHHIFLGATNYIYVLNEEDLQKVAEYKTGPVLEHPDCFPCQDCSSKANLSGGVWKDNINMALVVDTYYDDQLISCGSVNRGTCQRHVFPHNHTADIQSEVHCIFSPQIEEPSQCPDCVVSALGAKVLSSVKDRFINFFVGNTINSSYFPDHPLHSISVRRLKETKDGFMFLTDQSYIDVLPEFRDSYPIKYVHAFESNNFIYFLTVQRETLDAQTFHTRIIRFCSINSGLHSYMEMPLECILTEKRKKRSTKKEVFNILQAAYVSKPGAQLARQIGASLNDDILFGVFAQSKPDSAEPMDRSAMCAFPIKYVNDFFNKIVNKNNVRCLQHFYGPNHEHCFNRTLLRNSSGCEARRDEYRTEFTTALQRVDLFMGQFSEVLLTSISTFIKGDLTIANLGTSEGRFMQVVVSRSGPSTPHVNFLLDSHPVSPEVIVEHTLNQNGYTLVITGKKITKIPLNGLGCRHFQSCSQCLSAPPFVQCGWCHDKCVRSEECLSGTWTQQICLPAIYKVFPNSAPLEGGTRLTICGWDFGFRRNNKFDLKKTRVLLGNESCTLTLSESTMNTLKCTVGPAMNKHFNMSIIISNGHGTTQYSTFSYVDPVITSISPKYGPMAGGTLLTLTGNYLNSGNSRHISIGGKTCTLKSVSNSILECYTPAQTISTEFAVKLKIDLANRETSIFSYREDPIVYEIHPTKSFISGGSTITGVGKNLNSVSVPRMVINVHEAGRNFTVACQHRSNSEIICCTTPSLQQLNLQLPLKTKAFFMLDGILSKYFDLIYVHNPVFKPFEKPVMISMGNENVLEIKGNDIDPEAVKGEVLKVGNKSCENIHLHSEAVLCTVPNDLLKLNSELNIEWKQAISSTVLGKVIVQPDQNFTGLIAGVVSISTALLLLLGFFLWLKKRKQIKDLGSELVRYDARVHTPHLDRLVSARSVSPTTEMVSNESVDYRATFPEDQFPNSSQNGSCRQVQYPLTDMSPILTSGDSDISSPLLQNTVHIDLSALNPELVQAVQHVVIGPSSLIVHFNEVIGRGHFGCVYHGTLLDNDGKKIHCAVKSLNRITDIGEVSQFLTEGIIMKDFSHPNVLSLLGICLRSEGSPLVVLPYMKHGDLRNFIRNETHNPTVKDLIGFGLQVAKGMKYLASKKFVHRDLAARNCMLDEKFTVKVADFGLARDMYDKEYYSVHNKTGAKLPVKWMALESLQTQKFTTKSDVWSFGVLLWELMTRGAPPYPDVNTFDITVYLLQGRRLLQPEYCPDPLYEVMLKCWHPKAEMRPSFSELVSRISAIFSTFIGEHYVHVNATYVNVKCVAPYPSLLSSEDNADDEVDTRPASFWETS
For a further series, the target named is VEGFR-2 (Homo sapiens, UniProt P35968). Nature of the series: Kinase activity against VEGFR-2. The format is biochemical. The settings on record: for IC50: Table 3, inhibitory activity (IC50) against VEGFR-2, – = no inhibitory effect. An excerpt:
It was consistent with the QSAR predicted results. […] Both of the proteins belong to the family of tyrosine kinase, which catalyse the phosphorylation of tyrosine. […] While subtle differences may make small molecules show different activities against the two kinases. So we superimposed the two kinases in three dimensions to explore the reason.

Broadly, the melting point is the temperature, or range, at which the solid turns liquid. As a reminder, the IC50 is the concentration at which inhibition is half-maximal.

VEGFR-2, sequence (P35968 20-1356): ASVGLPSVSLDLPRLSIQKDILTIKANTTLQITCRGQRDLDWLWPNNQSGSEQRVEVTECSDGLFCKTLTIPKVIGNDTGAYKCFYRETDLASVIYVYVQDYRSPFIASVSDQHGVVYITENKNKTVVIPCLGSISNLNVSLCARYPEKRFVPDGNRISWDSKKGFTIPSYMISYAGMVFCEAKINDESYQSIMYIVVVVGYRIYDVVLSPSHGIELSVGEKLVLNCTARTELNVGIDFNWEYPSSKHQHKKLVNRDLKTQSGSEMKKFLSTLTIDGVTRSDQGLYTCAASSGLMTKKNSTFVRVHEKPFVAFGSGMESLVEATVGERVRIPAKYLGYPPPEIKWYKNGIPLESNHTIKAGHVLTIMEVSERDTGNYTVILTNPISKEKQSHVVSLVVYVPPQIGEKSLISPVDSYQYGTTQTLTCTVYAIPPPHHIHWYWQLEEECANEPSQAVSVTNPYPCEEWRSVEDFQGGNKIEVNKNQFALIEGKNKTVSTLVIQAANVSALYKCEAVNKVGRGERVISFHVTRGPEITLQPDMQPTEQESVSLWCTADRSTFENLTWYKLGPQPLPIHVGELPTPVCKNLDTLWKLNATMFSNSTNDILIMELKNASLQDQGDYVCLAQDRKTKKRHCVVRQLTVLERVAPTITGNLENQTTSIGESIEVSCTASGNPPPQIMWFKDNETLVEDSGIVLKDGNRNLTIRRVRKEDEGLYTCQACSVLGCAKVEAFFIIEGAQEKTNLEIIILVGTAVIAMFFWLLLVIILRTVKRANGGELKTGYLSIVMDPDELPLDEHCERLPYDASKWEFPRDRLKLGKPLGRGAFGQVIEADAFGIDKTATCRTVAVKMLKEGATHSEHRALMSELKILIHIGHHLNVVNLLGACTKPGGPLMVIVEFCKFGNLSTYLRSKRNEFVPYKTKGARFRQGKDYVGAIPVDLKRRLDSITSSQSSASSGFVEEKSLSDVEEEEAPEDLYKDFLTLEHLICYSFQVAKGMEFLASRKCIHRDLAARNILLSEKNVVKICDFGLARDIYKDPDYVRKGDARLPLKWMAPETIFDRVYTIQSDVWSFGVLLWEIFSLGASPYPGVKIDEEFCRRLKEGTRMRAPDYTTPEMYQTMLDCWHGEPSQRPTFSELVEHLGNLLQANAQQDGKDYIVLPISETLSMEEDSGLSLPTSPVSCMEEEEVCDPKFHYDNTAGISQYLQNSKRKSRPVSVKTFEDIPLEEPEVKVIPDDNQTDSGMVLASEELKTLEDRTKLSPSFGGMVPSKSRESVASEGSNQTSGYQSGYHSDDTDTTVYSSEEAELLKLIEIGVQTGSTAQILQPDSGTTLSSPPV
Procedure for recombinant c-Met kinase: The capacity of the novel compounds for inhibiting c-Met activity was evaluated using a cell-free assay.

Take `CC(=O)Nc1cccc(-c2cn(CC(=O)N/N=C/c3ccc(Cl)cc3)nn2)c1` [Compound 10a, (E)-2-(4-(3-acetamidophenyl)-1H-1,2,3-triazol-1-yl)-N'-(4-chlorobenzylidene)]: the melting point was 234.6 to 234.9 °C. For the same compound, at recombinant c-Met kinase, the IC50 is 1.7 nM.
`CC(=O)Nc1cccc(-c2cn(CC(=O)N/N=C/c3cccc(Cl)c3)nn2)c1` [Compound 10b, (E)-2-(4-(3-acetamidophenyl)-1H-1,2,3-triazol-1-yl)-N'-(3-chlorobenzylidene)]: the melting point was in the range of 255.8 to 256.3 °C. In addition, at VEGFR-2, the “activity against VEGFR-2 (in words)” value was “no activity” and the IC50 was above 12000 nM. Besides, the IC50 at recombinant c-Met kinase turned out to be 0.37 nM.
Compound `CC(=O)Nc1cccc(-c2cn(CC(=O)N/N=C/c3ccc(O)cc3)nn2)c1` [Compound 10c, (E)-2-(4-(3-acetamidophenyl)-1H-1,2,3-triazol-1-yl)-N'-(4-hydroxybenzylidene) acetohydrazide] yielded a melting point of 260 to 260.8 °C. Also, the IC50 on recombinant c-Met kinase was 11200 nM.
`CC(=O)Nc1cccc(-c2cn(CC(=O)N/N=C/c3ccccc3O)nn2)c1` [Compound 10d, (E)-2-(4-(3-acetamidophenyl)-1H-1,2,3-triazol-1-yl)-N'-(2-hydroxybenzylidene) acetohydrazide] returned a melting point of 253.8 to 254.2 °C. Besides, the IC50 at recombinant c-Met kinase was 266 nM.
For `CC(=O)Nc1cccc(-c2cn(CC(=O)N/N=C/c3ccccc3[N+](=O)[O-])nn2)c1` [Compound 10e, (E)-2-(4-(3-acetamidophenyl)-1H-1,2,3-triazol-1-yl)-N'-(2-nitrobenzylidene)acetohydrazide], the melting point was 233.2 to 233.8 °C. Moreover, the IC50 on recombinant c-Met kinase worked out at 5860 nM.
In the case of `CC(=O)Nc1cccc(-c2cn(CC(=O)N/N=C/c3cc(Cl)ccc3O)nn2)c1` [Compound 10f, (E)-2-(4-(3-acetamidophenyl)-1H-1,2,3-triazol-1-yl)-N'-(5-chloro-2-hydroxybenzylidene) acetohydrazide], the melting point lay within 234.6 to 234.9 °C. On VEGFR-2, this compound came in with an IC50 of 139 nM. Further, the IC50 at recombinant c-Met kinase came out at 1.19 nM.
In turn, `CC(=O)Nc1cccc(-c2cn(CC(=O)N/N=C/c3cc(Br)cc(Br)c3O)nn2)c1` [Compound 10g, (E)-2-(4-(3-acetamidophenyl)-1H-1,2,3-triazol-1-yl)-N'-(3,5-dibromo-2-hydroxybenzylidene)acetohydrazide] returned a melting point of 237 to 237.5 °C. In addition, the IC50 on recombinant c-Met kinase was found to be 8930 nM.
Turning to `CC(=O)Nc1cccc(-c2cn(CC(=O)N/N=C/c3cc(Br)ccc3O)nn2)c1` [Compound 10h, (E)-2-(4-(3-acetamidophenyl)-1H-1,2,3-triazol-1-yl)-N'-(5-bromo-2-hydroxybenzylidene) acetohydrazide], the melting point fell in the range of 228.9 to 229.3 °C. In addition, on recombinant c-Met kinase, the IC50 was above 12000 nM.
`COc1ccc(/C=N/NC(=O)Cn2cc(-c3cccc(NC(C)=O)c3)nn2)c(OC)c1` [Compound 10i, (E)-2-(4-(3-acetamidophenyl)-1H-1,2,3-triazol-1-yl)-N'-(2,4-dimethoxybenzylidene) acetohydrazide] showed a melting point of 210.9 to 211.3 °C. The IC50 at recombinant c-Met kinase was 1.73 nM.
In turn, `COc1ccc(/C=N/NC(=O)Cn2cc(-c3cccc(NC(C)=O)c3)nn2)cc1OC` [Compound 10j, (E)-2-(4-(3-acetamidophenyl)-1H-1,2,3-triazol-1-yl)-N'-(3,4-dimethoxybenzylidene) acetohydrazide] displayed a melting point of 230 to 230.6 °C. Besides, the IC50 at recombinant c-Met kinase worked out at 5.42 nM.
`COc1cc(/C=N/NC(=O)Cn2cc(-c3cccc(NC(C)=O)c3)nn2)cc(OC)c1OC` [Compound 10k, (E)-2-(4-(3-acetamidophenyl)-1H-1,2,3-triazol-1-yl)-N'-(3,4,5-trimethoxybenzylidene) acetohydrazide] had a melting point of 210.2 to 212.9 °C. At recombinant c-Met kinase, the IC50 came out at 91.5 nM.
The matching figures for `O=C(Cn1cc(-c2ccccc2)nn1)N/N=C/c1ccc(Cl)cc1` [Compound 11a, (E)-N'-(4-chlorobenzylidene)-2-(4-phenyl-1H-1,2,3-triazol-1-yl)acetohydrazide]: 259 to 259.6 °C and above 12000 nM.
`O=C(Cn1cc(-c2ccccc2)nn1)N/N=C/c1cccc(Cl)c1` [Compound 11b, (E)-N'-(3-chlorobenzylidene)-2-(4-phenyl-1H-1,2,3-triazol-1-yl)acetohydrazide] showed a melting point of 259 to 259.8 °C. The same compound gave an IC50 against VEGFR-2 of 25.3 nM. Also, at recombinant c-Met kinase, the IC50 turned out to be 3.41 nM.
In turn, `O=C(Cn1cc(-c2ccccc2)nn1)N/N=C/c1ccc(O)cc1` [Compound 11c, (E)-N'-(4-hydroxybenzylidene)-2-(4-phenyl-1H-1,2,3-triazol-1-yl)acetohydrazide] registered a melting point of 234 to 234.5 °C. Besides, the IC50 at recombinant c-Met kinase was found to be 5680 nM.
Compound `O=C(Cn1cc(-c2ccccc2)nn1)N/N=C/c1ccccc1O` [Compound 11d, (E)-N'-(2-hydroxybenzylidene)-2-(4-phenyl-1H-1,2,3-triazol-1-yl)acetohydrazide] had a melting point of 239 to 239.6 °C. Besides, the IC50 at recombinant c-Met kinase is above 12000 nM.
`O=C(Cn1cc(-c2ccccc2)nn1)N/N=C/c1ccccc1[N+](=O)[O-]` [Compound 11e, (E)-N'-(2-nitrobenzylidene)-2-(4-phenyl-1H-1,2,3-triazol-1-yl)acetohydrazide] returned a melting point of 225.2 to 225.6 °C. For the same compound, the IC50 on recombinant c-Met kinase is 4280 nM.
`O=C(Cn1cc(-c2ccccc2)nn1)N/N=C/c1cc(Cl)ccc1O` [Compound 11f, (E)-N'-(5-chloro-2-hydroxybenzylidene)-2-(4-phenyl-1H-1,2,3-triazol-1-yl)acetohydrazide] gave a melting point of 240 to 240.6 °C. The IC50 against VEGFR-2 was determined as 9860 nM. The IC50 on recombinant c-Met kinase was above 12000 nM.
For `O=C(Cn1cc(-c2ccccc2)nn1)N/N=C/c1cc(Br)cc(Br)c1O` [Compound 11g, (E)-N'-(3,5-dibromo-2-hydroxybenzylidene)-2-(4-phenyl-1H-1,2,3-triazol-1-yl) acetohydrazide], the melting point lay in the range of 231 to 231.5 °C. In addition, the IC50 at recombinant c-Met kinase was above 12000 nM.
As to `O=C(Cn1cc(-c2ccccc2)nn1)N/N=C/c1cc(Br)ccc1O` [Compound 11h, (E)-N'-(5-bromo-2-hydroxybenzylidene)-2-(4-phenyl-1H-1,2,3-triazol-1-yl)acetohydrazide], the melting point is 233 to 233.5 °C. The 50% inhibitory concentration (IC50) at recombinant c-Met kinase amounted to 11.9 nM.
For the compound `COc1ccc(/C=N/NC(=O)Cn2cc(-c3ccccc3)nn2)c(OC)c1` [Compound 11i, (E)-N'-(2,4-dimethoxybenzylidene)-2-(4-phenyl-1H-1,2,3-triazol-1-yl)acetohydrazide], the melting point was 230 to 230.4 °C. In addition, the midpoint of inhibition on VEGFR-2, the IC50, lay at 849 nM. Further, the IC50 at recombinant c-Met kinase was above 12000 nM.
For the compound `COc1ccc(/C=N/NC(=O)Cn2cc(-c3ccccc3)nn2)cc1OC` [Compound 11j, (E)-N'-(3,4-dimethoxybenzylidene)-2-(4-phenyl-1H-1,2,3-triazol-1-yl)acetohydrazide], the melting point is 232.1 to 232.5 °C. Further, the IC50 at recombinant c-Met kinase was found to be 3080 nM.
`COc1cc(/C=N/NC(=O)Cn2cc(-c3ccccc3)nn2)cc(OC)c1OC` [Compound 11k, (E)-2-(4-phenyl-1H-1,2,3-triazol-1-yl)-N'-(3,4,5-trimethoxybenzylidene)acetohydrazide] showed a melting point of 233.5 to 233.8 °C. The IC50 on recombinant c-Met kinase was above 12000 nM.
